From ChEMBL document CHEMBL5143671, “Discovery of (R)-(3-fluoropyrrolidin-1-yl)(6-((5-(trifluoromethyl)pyridin-2-yl)oxy)quinolin-2-yl)methanone (ABBV-318) and analogs as small molecule Nav1.7/ Nav1.8 blockers for the treatment of pain” (Bioorg Med Chem, 2022)
Values after ≈ are worked out from the molar mass of the structure shown.

Legend:
[1] = Inhibition of rat Nav 1.7 by FRET based membrane potential assay
[2] = Drug concentration in plasma of monoiodoacetate-induced chronic Sprague-Dawley rat model of osteoarthritis at 3 mg/kg, po administered twice for 1 day; format: ADME, organism-based
[3] = Half-life in orally dosed monkey; format: ADME, organism-based, Macaca mulatta; details: rhesus monkey, in vivo; route po
[4] = Drug concentration in brain of monoiodoacetate-induced chronic Sprague-Dawley rat model of osteoarthritis at 0.3 mg/kg, po administered twice daily for 5 days; format: ADME, organism-based; details: time 5 day, read-out: Ct
[5] = rat, in vivo, po
[6] = Drug concentration in plasma of monoiodoacetate-induced chronic Sprague-Dawley rat model of osteoarthritis at 10 mg/kg, po administered twice for 1 day; format: ADME, organism-based
in vivo [7] = details: Sprague-Dawley, rat, po
[8] = Clearance in iv dosed dog; format: ADME, organism-based, Canis lupus familiaris; details: in vivo
[9] = Effect on locomotor activity in rat by rotorod test; format: toxicity
[10] = Cardiotoxicity in anesthetized rat CV model assessed as effect on PR interval upto 31 uM by ECG analysis; format: toxicity
[11] = Drug concentration in plasma of monoiodoacetate-induced acute Sprague-Dawley rat model of osteoarthritis at 3 mg/kg, po administered for 5 days and measured after 15 mins; format: ADME, organism-based; details: time 5 day
[12] = Drug concentration in plasma of monoiodoacetate-induced chronic Sprague-Dawley rat model of osteoarthritis at 0.3 mg/kg, po administered twice for 1 day; format: ADME, organism-based
[13] = Oral bioavailability in dog; format: ADME, organism-based, Canis lupus familiaris; details: in vivo
[14] = Effect on locomotor activity in rat by locomotor assay; format: toxicity
[15] = Half-life in orally dosed dog; format: ADME, organism-based, Canis lupus familiaris; details: in vivo, route po
[16] = Drug concentration in brain of monoiodoacetate-induced acute Sprague-Dawley rat model of osteoarthritis at 30 mg/kg, po administered for 5 days and measured after 15 mins; format: ADME, organism-based; details: time 5 day, read-out: Ct
[17] = Drug concentration in brain of monoiodoacetate-induced chronic Sprague-Dawley rat model of osteoarthritis at 10 mg/kg, po administered twice daily for 5 days; format: ADME, organism-based; details: time 5 day, read-out: Ct
in vivo [18] = details: Sprague-Dawley, rat, po; remark: listed apart in the source
[19] = Cardiotoxicity in anesthetized rat CV model assessed as effect on QRS complex upto 31 uM by ECG analysis; format: toxicity
[20] = Volume of distribution at steady state in orally dosed dog; format: ADME, organism-based, Canis lupus familiaris; details: in vivo, po
[21] = Drug concentration in plasma of monoiodoacetate-induced chronic Sprague-Dawley rat model of osteoarthritis at 1 mg/kg, po administered twice daily for 5 days; format: ADME, organism-based; details: time 5 day
[22] = Drug concentration in plasma of monoiodoacetate-induced chronic Sprague-Dawley rat model of osteoarthritis at 3 mg/kg, po administered twice daily for 5 days; format: ADME, organism-based; details: time 5 day
Rattus norvegicus [23] = species: Rattus norvegicus; experiment: animal or person; details: Sprague-Dawley
[24] = Drug concentration in brain of monoiodoacetate-induced acute Sprague-Dawley rat model of osteoarthritis at 10 mg/kg, po administered for 5 days and measured after 15 mins; format: ADME, organism-based; details: time 5 day, read-out: Ct
[25] = Cardiotoxicity in conscious dog CV model assessed as effect on PR interval upto 47 uM by ECG analysis; format: toxicity, Canis lupus familiaris
[26] = Oral bioavailability in monkey; format: ADME, organism-based, Macaca mulatta; details: rhesus monkey, in vivo
[27] = Clearance in iv dosed monkey; format: ADME, organism-based, Macaca mulatta; details: rhesus monkey, in vivo
[28] = Cardiotoxicity in conscious dog CV model assessed as effect on QRS complex upto 47 uM by ECG analysis; format: toxicity, Canis lupus familiaris
[29] = Drug concentration in plasma of monoiodoacetate-induced acute Sprague-Dawley rat model of osteoarthritis at 30 mg/kg, po administered for 5 days and measured after 15 mins; format: ADME, organism-based; details: time 5 day
[30] = Drug concentration in brain of monoiodoacetate-induced acute Sprague-Dawley rat model of osteoarthritis at 3 mg/kg, po administered for 5 days and measured after 15 mins; format: ADME, organism-based; details: time 5 day, read-out: Ct
in vivo [31] = details: Sprague-Dawley, rat, iv
[32] = Drug concentration in brain of monoiodoacetate-induced chronic Sprague-Dawley rat model of osteoarthritis at 1 mg/kg, po administered twice daily for 5 days; format: ADME, organism-based; details: time 5 day, read-out: Ct
[33] = Ratio of free drug concentration in brain to plasma of rat; format: ADME, cell-free; details: brain and plasma
[34] = Drug exposure in plasma of rat; format: ADME; details: in vivo
[35] = Drug concentration in plasma of monoiodoacetate-induced acute Sprague-Dawley rat model of osteoarthritis at 10 mg/kg, po administered for 5 days and measured after 15 mins; format: ADME, organism-based; details: time 5 day
[36] = Drug concentration in rat brain assessed as free fraction; format: ADME, tissue-based
[37] = target: T1, Sodium channel protein type 9 subunit alpha (Homo sapiens, UniProt Q15858)
T1 sequence (Q15858 whole entry, looked up): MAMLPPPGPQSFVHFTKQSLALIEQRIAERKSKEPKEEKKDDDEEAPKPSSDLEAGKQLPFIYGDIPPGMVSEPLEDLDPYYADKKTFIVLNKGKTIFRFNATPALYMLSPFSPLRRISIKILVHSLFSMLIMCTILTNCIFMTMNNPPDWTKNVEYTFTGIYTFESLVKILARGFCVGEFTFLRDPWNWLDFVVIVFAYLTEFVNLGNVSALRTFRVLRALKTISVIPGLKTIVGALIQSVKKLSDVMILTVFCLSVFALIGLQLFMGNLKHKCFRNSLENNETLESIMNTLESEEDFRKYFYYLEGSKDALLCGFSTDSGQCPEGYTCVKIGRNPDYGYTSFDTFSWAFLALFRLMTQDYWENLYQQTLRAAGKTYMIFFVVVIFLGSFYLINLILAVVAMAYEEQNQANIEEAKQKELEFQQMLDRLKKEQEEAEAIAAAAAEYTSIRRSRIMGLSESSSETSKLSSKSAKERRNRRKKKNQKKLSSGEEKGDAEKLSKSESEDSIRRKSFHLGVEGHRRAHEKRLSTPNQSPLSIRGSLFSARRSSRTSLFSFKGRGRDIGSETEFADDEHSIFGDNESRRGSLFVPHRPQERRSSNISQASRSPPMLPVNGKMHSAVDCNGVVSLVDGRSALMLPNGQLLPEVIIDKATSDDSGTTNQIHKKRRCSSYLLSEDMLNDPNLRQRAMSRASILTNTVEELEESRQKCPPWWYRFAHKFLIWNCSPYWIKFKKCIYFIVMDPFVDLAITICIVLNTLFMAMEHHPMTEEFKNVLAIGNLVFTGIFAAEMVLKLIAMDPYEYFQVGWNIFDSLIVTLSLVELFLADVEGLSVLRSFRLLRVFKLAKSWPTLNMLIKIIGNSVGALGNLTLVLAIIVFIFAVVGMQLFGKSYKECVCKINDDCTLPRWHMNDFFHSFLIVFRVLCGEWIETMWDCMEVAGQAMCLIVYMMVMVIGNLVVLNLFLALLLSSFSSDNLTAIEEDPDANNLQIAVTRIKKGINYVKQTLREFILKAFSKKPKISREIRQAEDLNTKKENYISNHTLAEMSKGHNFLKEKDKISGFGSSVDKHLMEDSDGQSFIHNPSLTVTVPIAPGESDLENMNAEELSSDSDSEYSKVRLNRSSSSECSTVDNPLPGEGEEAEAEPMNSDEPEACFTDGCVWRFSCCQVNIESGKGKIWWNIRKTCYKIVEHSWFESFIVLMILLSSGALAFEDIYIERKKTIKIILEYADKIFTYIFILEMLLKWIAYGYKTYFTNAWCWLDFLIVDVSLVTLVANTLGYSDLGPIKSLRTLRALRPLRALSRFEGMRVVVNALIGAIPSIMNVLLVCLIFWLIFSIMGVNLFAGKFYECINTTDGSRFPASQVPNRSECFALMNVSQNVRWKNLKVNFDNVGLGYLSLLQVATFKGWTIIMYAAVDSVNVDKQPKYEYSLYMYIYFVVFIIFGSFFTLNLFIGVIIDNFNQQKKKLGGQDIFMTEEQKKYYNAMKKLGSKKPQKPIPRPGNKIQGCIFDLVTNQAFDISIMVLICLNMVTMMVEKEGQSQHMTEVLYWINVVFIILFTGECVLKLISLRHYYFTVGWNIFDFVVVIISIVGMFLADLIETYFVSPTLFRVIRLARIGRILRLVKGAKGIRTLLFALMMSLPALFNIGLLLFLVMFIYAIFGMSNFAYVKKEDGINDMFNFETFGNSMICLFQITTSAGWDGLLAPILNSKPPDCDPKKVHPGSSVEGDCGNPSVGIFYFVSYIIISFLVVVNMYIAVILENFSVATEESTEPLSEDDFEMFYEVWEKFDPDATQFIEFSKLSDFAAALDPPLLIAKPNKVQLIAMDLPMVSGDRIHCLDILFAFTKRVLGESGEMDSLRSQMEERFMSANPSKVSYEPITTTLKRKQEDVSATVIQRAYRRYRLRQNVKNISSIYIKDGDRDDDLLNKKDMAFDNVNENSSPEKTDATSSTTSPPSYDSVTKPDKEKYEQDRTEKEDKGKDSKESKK

physchem = details: phosphate buffer
[38] = Volume of distribution at steady state in orally dosed monkey; format: ADME, organism-based, Macaca mulatta; details: rhesus monkey, in vivo, po
[39] = Drug concentration in brain of monoiodoacetate-induced chronic Sprague-Dawley rat model of osteoarthritis at 3 mg/kg, po administered twice daily for 5 days; format: ADME, organism-based; details: time 5 day, read-out: Ct
[40] = Drug concentration in rat plasma assessed as free fraction; format: ADME, cell-free
[41] = target: T1, Sodium channel protein type 9 subunit alpha; experiment: Inhibition of recombinant human Nav 1.7 expressed in HEK293F cells at […] holding potential by manual voltage clamp electrophysiology method; format: cell-based
[42] = target: Sodium channel protein type 5 subunit alpha (Homo sapiens, UniProt Q14524)
Chain of Sodium channel protein type 5 subunit alpha (Q14524 whole entry): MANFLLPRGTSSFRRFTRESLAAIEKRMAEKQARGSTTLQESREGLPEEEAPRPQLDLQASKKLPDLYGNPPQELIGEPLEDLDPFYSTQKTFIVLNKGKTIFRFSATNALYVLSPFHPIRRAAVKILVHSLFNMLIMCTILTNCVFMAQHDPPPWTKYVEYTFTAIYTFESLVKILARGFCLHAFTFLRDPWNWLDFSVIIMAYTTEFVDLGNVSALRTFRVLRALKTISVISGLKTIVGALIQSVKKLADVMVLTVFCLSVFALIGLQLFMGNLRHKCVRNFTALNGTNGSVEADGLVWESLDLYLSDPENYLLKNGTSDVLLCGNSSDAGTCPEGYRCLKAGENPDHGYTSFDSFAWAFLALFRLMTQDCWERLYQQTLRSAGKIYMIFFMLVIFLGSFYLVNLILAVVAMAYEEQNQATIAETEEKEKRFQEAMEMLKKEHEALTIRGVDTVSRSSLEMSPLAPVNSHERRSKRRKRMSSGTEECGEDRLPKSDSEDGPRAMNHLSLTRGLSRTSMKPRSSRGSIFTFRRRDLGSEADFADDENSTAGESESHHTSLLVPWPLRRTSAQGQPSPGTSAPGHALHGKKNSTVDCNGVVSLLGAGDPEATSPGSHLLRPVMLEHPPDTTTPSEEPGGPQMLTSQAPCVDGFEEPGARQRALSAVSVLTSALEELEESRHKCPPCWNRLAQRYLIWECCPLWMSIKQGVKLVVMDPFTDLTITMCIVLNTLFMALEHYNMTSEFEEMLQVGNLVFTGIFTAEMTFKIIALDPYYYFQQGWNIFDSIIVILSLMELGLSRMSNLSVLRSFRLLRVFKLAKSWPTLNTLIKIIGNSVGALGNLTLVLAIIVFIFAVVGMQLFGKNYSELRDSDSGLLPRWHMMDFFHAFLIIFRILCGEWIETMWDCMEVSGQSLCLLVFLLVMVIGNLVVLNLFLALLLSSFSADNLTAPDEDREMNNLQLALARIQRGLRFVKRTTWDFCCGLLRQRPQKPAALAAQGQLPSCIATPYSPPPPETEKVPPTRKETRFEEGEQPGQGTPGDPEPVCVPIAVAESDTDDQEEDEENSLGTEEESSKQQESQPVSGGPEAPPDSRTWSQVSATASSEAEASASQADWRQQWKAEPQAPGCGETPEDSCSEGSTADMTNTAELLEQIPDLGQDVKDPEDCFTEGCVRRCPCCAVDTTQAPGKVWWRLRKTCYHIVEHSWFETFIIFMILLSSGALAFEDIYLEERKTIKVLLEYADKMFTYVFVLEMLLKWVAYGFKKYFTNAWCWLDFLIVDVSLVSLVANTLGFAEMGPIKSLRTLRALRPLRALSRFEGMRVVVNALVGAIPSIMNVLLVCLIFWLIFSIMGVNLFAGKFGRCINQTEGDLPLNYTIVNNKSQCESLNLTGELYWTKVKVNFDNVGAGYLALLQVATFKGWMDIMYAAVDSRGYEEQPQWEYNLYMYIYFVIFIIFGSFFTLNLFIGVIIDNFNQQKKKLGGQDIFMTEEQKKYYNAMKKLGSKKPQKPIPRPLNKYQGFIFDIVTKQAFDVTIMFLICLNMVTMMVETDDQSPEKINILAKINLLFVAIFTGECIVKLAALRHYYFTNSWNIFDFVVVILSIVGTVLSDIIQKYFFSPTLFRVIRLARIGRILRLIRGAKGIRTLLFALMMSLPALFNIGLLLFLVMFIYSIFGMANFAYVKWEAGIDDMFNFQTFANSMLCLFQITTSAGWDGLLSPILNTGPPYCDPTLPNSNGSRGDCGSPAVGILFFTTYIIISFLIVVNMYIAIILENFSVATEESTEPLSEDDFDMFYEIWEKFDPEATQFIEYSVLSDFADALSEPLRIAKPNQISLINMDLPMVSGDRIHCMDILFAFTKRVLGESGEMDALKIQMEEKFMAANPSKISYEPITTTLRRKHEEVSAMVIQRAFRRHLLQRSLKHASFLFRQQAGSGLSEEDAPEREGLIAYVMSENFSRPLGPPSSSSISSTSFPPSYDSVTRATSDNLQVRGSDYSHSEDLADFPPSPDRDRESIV

Rattus norvegicus [43] = species: Rattus norvegicus; experiment: cells; details: Sprague-Dawley
[44] = Drug concentration in plasma of monoiodoacetate-induced chronic Sprague-Dawley rat model of osteoarthritis at 0.3 mg/kg, po administered twice daily for 5 days; format: ADME, organism-based; details: time 5 day
Rattus norvegicus [45] = species: Rattus norvegicus; experiment: animal or person; details: Sprague-Dawley; remark: listed apart in the source
[46] = Drug concentration in plasma of monoiodoacetate-induced chronic Sprague-Dawley rat model of osteoarthritis at 10 mg/kg, po administered twice daily for 5 days; format: ADME, organism-based; details: time 5 day
[47] = Drug concentration in plasma of monoiodoacetate-induced chronic Sprague-Dawley rat model of osteoarthritis at 1 mg/kg, po administered twice for 1 day; format: ADME, organism-based
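For solubility in this document: determined using a high-throughput solubility method.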

O=C(c1ccc2cc(Oc3ccc(C(F)(F)F)cn3)ccc2n1)N1CC[C@@H](F)C1 showed an IC50 [1] of 2860 nM, a concentration at 24 h [2] of 750 ng/mL and a half-life [3] of 7.6 h. It also gave a concentration at 120 h [4] of 110 ng/mL, a Vdss [5] of 4.06 L/kg and a concentration at 24 h [6] of 3440 ng/mL. For the same compound, the bioavailability (in vivo [7]) was 80%, the clearance [8] was 5 mL/min/kg and the Activity [9] was “Non-Toxic”. For the same compound, the Activity [10] was “Non-Toxic”, the concentration at 120 h [11] was 1410 ng/mL and the concentration at 24 h [12] was 70 ng/mL. The bioavailability [13] was 85%, the Activity [14] was “Non-Toxic” and the half-life [15] was 13.4 h. For the same compound, the concentration at 120 h [16] was 10800 ng/mL, the concentration at 120 h [17] was 4230 ng/mL and the half-life (in vivo [18]) was 5.44 h. For the same compound, the Activity [19] was “Non-Toxic”, the Vdss [20] was 4.1 L/kg and the concentration at 120 h [21] was 480 ng/mL. For the same compound, the concentration at 120 h [22] was 1480 ng/mL, the EC50 (Rattus norvegicus [23]) was 1.4 µg/mL (≈ 3.45 µM) and the concentration at 120 h [24] was 5240 ng/mL. The Activity [25] was “Non-Toxic”, the bioavailability [26] was 110% and the clearance [27] was 5 mL/min/kg. For the same compound, the Activity [28] was “Non-Toxic”, the concentration at 120 h [29] was 10000 ng/mL and the concentration at 120 h [30] was 1530 ng/mL. The clearance (in vivo [31]) was 7.17 mL/min/kg, the concentration at 120 h [32] was 260 ng/mL and the Kp uu [33] was 0.29. For the same compound, the Cp [34] was 11200 ng/mL, the concentration at 120 h [35] was 5180 ng/mL and the fraction unbound [36] was 0.015. It also gave an IC50 [37] of 3140 nM, a solubility (physchem) of 84 µM (≈ 34 µg/mL) and a Vdss [38] of 3.6 L/kg. The concentration at 120 h [39] was 1140 ng/mL, the fraction unbound [40] was 0.05 and the IC50 [41] was 1100 nM. For the same compound, the IC50 [42] was 33000 nM, the EC50 (Rattus norvegicus [43]) was 4 µg/mL (≈ 9.87 µM) and the concentration at 120 h [44] was 140 ng/mL. It also gave an EC50 (Rattus norvegicus [45]) of 0.24 µg/mL (≈ 0.592 µM), a concentration at 120 h [46] of 5480 ng/mL and a concentration at 24 h [47] of 270 ng/mL.
